Broadly, the IC50 is the concentration that inhibits the measured activity by half. Read a high IC50 as weaker potency in that assay.

In the assay the target is Mutant B-Raf (V600E) enzyme (MT B-Raf) (Homo sapiens, UniProt P15056, V600E). Description: biochemical. The conditions noted are these: B-Raf Alpha screen comparable to the described assay; phosphorylation of biotinylated HIS-MEK-AVI; results may be an average of two or more results.
Chain of Mutant B-Raf (V600E) enzyme (MT B-Raf) (P15056 whole entry V600E): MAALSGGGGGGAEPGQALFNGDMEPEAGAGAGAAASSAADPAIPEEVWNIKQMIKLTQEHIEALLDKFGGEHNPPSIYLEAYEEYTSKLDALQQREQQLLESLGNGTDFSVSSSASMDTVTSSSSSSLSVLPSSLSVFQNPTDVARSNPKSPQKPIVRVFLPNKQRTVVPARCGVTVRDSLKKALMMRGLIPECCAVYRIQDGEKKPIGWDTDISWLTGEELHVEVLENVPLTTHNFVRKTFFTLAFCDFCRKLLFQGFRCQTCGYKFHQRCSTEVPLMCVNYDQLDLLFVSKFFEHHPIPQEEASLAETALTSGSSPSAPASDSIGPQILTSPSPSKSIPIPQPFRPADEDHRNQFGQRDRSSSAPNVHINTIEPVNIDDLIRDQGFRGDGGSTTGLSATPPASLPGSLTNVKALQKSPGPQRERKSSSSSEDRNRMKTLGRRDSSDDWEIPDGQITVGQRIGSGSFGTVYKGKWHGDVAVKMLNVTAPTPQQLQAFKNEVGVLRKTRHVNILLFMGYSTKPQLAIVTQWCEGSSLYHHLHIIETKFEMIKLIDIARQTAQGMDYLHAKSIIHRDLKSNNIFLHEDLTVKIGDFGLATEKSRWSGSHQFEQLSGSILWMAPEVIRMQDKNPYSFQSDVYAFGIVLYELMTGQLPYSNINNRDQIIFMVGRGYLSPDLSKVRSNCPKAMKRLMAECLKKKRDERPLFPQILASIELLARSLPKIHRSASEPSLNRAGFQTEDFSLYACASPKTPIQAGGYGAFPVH

For `Cc1ccc(Nc2ncc3cc(-c4ccncc4)ccc3n2)cc1` [Example 106, N-(4-Methylphenyl)-6-pyridin-4-ylquinazolin-2-amine], the half-inhibitory concentration (IC50) is 23000 nM. Next, `O=C(NCCN1CCOCC1)c1ccc(Nc2ncc3cc(-c4ccncc4)ccc3n2)cc1` [Example 5, N-(2-Morpholin-4-ylethyl)-4-[(6-pyridin-4-ylquinazolin-2-yl)amino]benzamide]: 180 nM; `O=C(NCCCn1ccnc1)c1ccc(Nc2ncc3cc(-c4ccncc4)ccc3n2)cc1` [Example 35, N-[3-(1H-Imidazol-1-yl)propyl]-4-[(6-pyridin-4-ylquinazolin-2-yl)amino]benzamide]: 110 nM; `O=C(NCC(O)CO)c1ccc(Nc2ncc3cc(-c4ccncc4)ccc3n2)cc1` (stereo not drawn) [Example 61, N-(2,3-Dihydroxypropyl)-4-[(6-pyridin-4-ylquinazolin-2-yl)amino]benzamide]: 100 nM.

Turning to `NCCNC(=O)c1ccc(Nc2ncc3cc(-c4ccncc4)ccc3n2)cc1` [Example 63, N-(2-Aminoethyl)-4-[(6-pyridin-4-ylquinazolin-2-yl)amino]benzamide], the half-inhibitory concentration (IC50) amounted to 98 nM.

`CNCCCNC(=O)c1ccc(Nc2ncc3cc(-c4ccncc4)ccc3n2)cc1` [Example 59, N-[3-(Methylamino)propyl]-4-[(6-pyridin-4-ylquinazolin-2-yl)amino]benzamide] came in with an IC50 of 69 nM. Next, `O=S(=O)(c1ccc(Nc2ncc3cc(-c4ccncc4)ccc3n2)cc1)N1CCCC1` [Example 96, 6-Pyridin-4-yl-N-[4-(pyrrolidin-1-ylsulfonyl)phenyl]quinazolin-2-amine]: 740 nM; `CC(C)(C)OC(=O)N1CCCC1CNC(=O)c1ccc(Nc2ncc3cc(-c4ccncc4)ccc3n2)cc1` (stereo not drawn) [Example 19, tert-Butyl 2-[({4-[(6-pyridin-4-ylquinazolin-2-yl)amino]benzoyl}amino)methyl]pyrrolidine-1-carboxylate]: 490 nM; `CC(C)(C)OC(=O)N1CCC(CNC(=O)c2ccc(Nc3ncc4cc(-c5ccncc5)ccc4n3)cc2)CC1` [Example 24, tert-Butyl 4-[({4-[(6-pyridin-4-ylquinazolin-2-yl)amino]benzoyl}amino)methyl]piperidine-1-carboxylate]: 520 nM. Next, `O=C(NCCCN1CCCC1=O)c1ccc(Nc2ncc3cc(-c4ccncc4)ccc3n2)cc1` [Example 21, N-[3-(2-Oxopyrrolidin-1-yl)propyl]-4-[(6-pyridin-4-ylquinazolin-2-yl)amino]benzamide]: 200 nM; `COc1cc(Nc2ncc3cc(-c4ccncc4)ccc3n2)cc(C(F)(F)F)c1` [Example 101, N-[3-Methoxy-5-(trifluoromethyl)phenyl]-6-pyridin-4-ylquinazolin-2-amine]: 1700 nM; `CC(C)(C#N)c1ccc(Nc2ncc3cc(-c4ccncc4)ccc3n2)cc1` [Example 2, 2-Methyl-2-{4-[(6-pyridin-4-ylquinazolin-2-yl)amino]phenyl}propanenitrile]: 730 nM. The result for `c1cc(-c2ccc3nc(Nc4ccc5c(c4)OCO5)ncc3c2)ccn1` [Example 44, N-1,3-Benzodioxol-5-yl-6-pyridin-4-ylquinazolin-2-amine] reads 420 nM; that for `Fc1ccc(Nc2ncc3cc(-c4ccncc4)ccc3n2)cc1` [Example 105, N-(4-Fluorophenyl)-6-pyridin-4-ylquinazolin-2-amine], 1200 nM.

Regarding `c1cc(-c2ccc3nc(Nc4ccc(N5CCCCC5)cc4)ncc3c2)ccn1` [Example 89, N-(4-Piperidin-1-ylphenyl)-6-pyridin-4-ylquinazolin-2-amine], the half-maximal inhibitory concentration (IC50) came out at 280 nM. The molecule `CN(C)c1ccc(Nc2ncc3cc(-c4ccncc4)ccc3n2)cc1` [Example 107, N,N-Dimethyl-N′-(6-pyridin-4-ylquinazolin-2-yl)benzene-1,4-diamine] came in with a half-inhibitory concentration (IC50) of 1900 nM. Next, `CC(C)NCCNC(=O)c1ccc(Nc2ncc3cc(-c4ccncc4)ccc3n2)cc1` [Example 28, N-[2-(Isopropylamino)ethyl]-4-[(6-pyridin-4-ylquinazolin-2-yl)amino]benzamide]: 140 nM; `COCCNC(=O)c1ccc(Nc2ncc3cc(-c4ccncc4)ccc3n2)nc1` [Example 18, N-(2-Methoxyethyl)-6-[(6-pyridin-4-ylquinazolin-2-yl)amino]nicotinamide]: 1300 nM. The result for `CC(CN(C)C)NCc1ccc(Nc2ncc3cc(-c4ccncc4)ccc3n2)cc1` (stereo not drawn) [Example 74, N^1,N^1-Dimethyl-N^2-{4-[(6-pyridin-4-ylquinazolin-2-yl)amino]benzyl}propane-1,2-diamine] reads 160 nM. Next, `CCN(CCO)Cc1ccc(Nc2ncc3cc(-c4ccncc4)ccc3n2)cc1` [Example 77, 2-(Ethyl{4-[(6-pyridin-4-ylquinazolin-2-yl)amino]benzyl}amino)ethanol]: 99 nM. With `COCCNC(=O)c1ccc(Nc2ncc3cc(-c4ccncc4)ccc3n2)c(OC)c1` [Example 114], the IC50 stood at 6800 nM.

In turn, `O=C(NCCCN1CCOCC1)c1ccc(Nc2ncc3cc(-c4ccncc4)ccc3n2)cc1` [Example 22, N-(3-Morpholin-4-ylpropyl)-4-[(6-pyridin-4-ylquinazolin-2-yl)amino]benzamide] showed an IC50 of 91 nM. The molecule `COCCNC(=O)c1cccc(Nc2ncc3cc(-c4ccncc4)ccc3n2)n1` [Example 38, N-(2-Methoxyethyl)-6-[(6-pyridin-4-ylquinazolin-2-yl)amino]pyridine-2-carboxamide] came in with an IC50 of 1500 nM. Next, `O=C(O)c1ccc(Nc2ncc3cc(-c4ccncc4)ccc3n2)cc1` [Example 122, 4-(6-(Pyridin-4-yl)quinazolin-2-ylamino)benzoic acid]: 78 nM; `OCCc1ccc(Nc2ncc3cc(-c4ccncc4)ccc3n2)cc1` [Example 52, 2-{4-[(6-Pyridin-4-ylquinazolin-2-yl)amino]phenyl}ethanol]: 120 nM. Next, `CC(c1ccc(Nc2ncc3cc(-c4ccncc4)ccc3n2)cc1)N(C)C` (single isomer, unassigned) [Example 139]: 36 nM; `O=S(=O)(c1cccc(Nc2ncc3cc(-c4ccncc4)ccc3n2)c1)N1CCCCC1` [Example 100, N-[3-(Piperidin-1-ylsulfonyl)phenyl]-6-pyridin-4-ylquinazolin-2-amine]: 1000 nM. Next, `CN(C)C(=O)c1ccc(Nc2ncc3cc(-c4ccncc4)ccc3n2)cc1` [Example 30, N,N-Dimethyl-4-[(6-pyridin-4-ylquinazolin-2-yl)amino]benzamide]: 83 nM; `c1cnn(-c2ccc(Nc3ncc4cc(-c5ccncc5)ccc4n3)cc2)c1` [Example 108, N-[4-(1H-Pyrazol-1-yl)phenyl]-6-pyridin-4-ylquinazolin-2-amine]: 250 nM. Consider `Cn1ccc(Nc2ncc3cc(-c4ccncc4)ccc3n2)n1` [Example 88, N-(1-Methyl-1H-pyrazol-3-yl)-6-pyridin-4-ylquinazolin-2-amine], for which half-maximal inhibition (IC50) required 1820 nM.

As to `CCCNC(C)c1ccc(Nc2ncc3cc(-c4ccncc4)ccc3n2)cc1` (single isomer, unassigned) [Example 142], the IC50 came out at 12 nM. Next, `Oc1ccc(Nc2ncc3cc(-c4ccncc4)ccc3n2)cc1` [Example 81, 4-[(6-Pyridin-4-ylquinazolin-2-yl)amino]phenol]: 61 nM; `Cc1nc2cc(Nc3ncc4cc(-c5ccncc5)ccc4n3)ccc2o1` [Example 109, N-(2-Methyl-1,3-benzoxazol-5-yl)-6-pyridin-4-ylquinazolin-2-amine]: 940 nM.

`Cc1cc(Nc2ncc3cc(-c4ccncc4)ccc3n2)ccc1C(=O)NCCN1CCOCC1` [Example 33, 2-Methyl-N-(2-morpholin-4-ylethyl)-4-[(6-pyridin-4-ylquinazolin-2-yl)amino]benzamide]: 160 nM corresponded to half-maximal inhibition (IC50).

The molecule `COCCCNC(C)c1ccc(Nc2ncc3cc(-c4ccncc4)ccc3n2)cc1` (stereo not drawn) [Example 55, N-(4-{1-[(3-Methoxypropyl)amino]ethyl}phenyl)-6-pyridin-4-ylquinazolin-2-amine] yielded an IC50 of 22 nM.

For `COC(=O)c1ccc(Nc2ncc3cc(-c4ccncc4)ccc3n2)cc1` [Example 9, Methyl 4-[(6-pyridin-4-ylquinazolin-2-yl)amino]benzoate], the IC50 came to 230 nM. Next, `CC(C)(C)OC(=O)NCCCNC(=O)c1ccc(Nc2ncc3cc(-c4ccncc4)ccc3n2)cc1` [Example 26, tert-Butyl [3-({4-[(6-pyridin-4-ylquinazolin-2-yl)amino]benzoyl}amino)propyl]carbamate]: 550 nM; `CN(C)C1CCN(C(=O)c2ccc(Nc3ncc4cc(-c5ccncc5)ccc4n3)cc2)C1` (stereo not drawn) [Example 117]: 73 nM.

`c1cc(-c2ccc3nc(Nc4ccc(CNCCN5CCOCC5)cc4)ncc3c2)ccn1` [Example 70, N-(4-{[(2-Morpholin-4-ylethyl)amino]methyl}phenyl)-6-pyridin-4-ylquinazolin-2-amine] returned a concentration for half-maximal inhibition (IC50) of 74 nM. `O=C(NCC1CCCN1)c1ccc(Nc2ncc3cc(-c4ccncc4)ccc3n2)cc1` (stereo not drawn) [Example 60, 4-[(6-Pyridin-4-ylquinazolin-2-yl)amino]-N-pyrrolidin-2-ylmethylbenzamide] displayed an IC50 of 150 nM.

The molecule `O=S(=O)(c1cccc(Nc2ncc3cc(-c4ccncc4)ccc3n2)c1)N1CCCC1` [Example 93, 6-Pyridin-4-yl-N-[3-(pyrrolidin-1-ylsulfonyl)phenyl]quinazolin-2-amine] showed a half-inhibitory concentration (IC50) of 3000 nM.

Molecule `CCCNC(C)c1ccc(Nc2ncc3cc(-c4ccncc4)ccc3n2)cc1` (stereo not drawn) [Example 138] had a 50% inhibitory concentration (IC50) of 47 nM.

With `O=C(NCCN1CCCCC1)c1ccc(Nc2ncc3cc(-c4ccncc4)ccc3n2)cc1` [Example 27, N-(2-Piperidin-1-ylethyl)-4-[(6-pyridin-4-ylquinazolin-2-yl)amino]benzamide], the half-maximal inhibitory concentration (IC50) was found to be 87 nM.

On to `CC(c1ccc(Nc2ncc3cc(-c4ccncc4)ccc3n2)cc1)N(C)C` (stereo not drawn) [Example 133], for which 46 nM corresponded to half-maximal inhibition (IC50). The result for `CCN(CCO)c1ccc(Nc2ncc3cc(-c4ccncc4)ccc3n2)cc1` [Example 92, 2-(Ethyl{4-[(6-pyridin-4-ylquinazolin-2-yl)amino]phenyl}amino)ethanol] reads 92 nM.

Source of the values: patent publication US20100216791A1, “PYRIDINYLQUINAZOLINAMINE DERIVATIVES AND THEIR USE AS B-RAF INHIBITORS” (ASTRAZENECA, priority 2006, published 2010).
